Laboratory results: the CheMixHub viscosity set

Assay: xn = mol fraction of the nth substance listed

CCCCOC(C)=O + CC(C)O
viscosity [mPa·s], 100 kPa
Settings | x1 = 0.081 | x1 = 0.1599 | x1 = 0.24 | x1 = 0.35 | x1 = 0.44 | x1 = 0.5601 | x1 = 0.65 | x1 = 0.74 | x1 = 0.85 | x1 = 0.9397
293.15 K | 1.638 | 1.156 | 0.884 | 0.725 | 0.688 | 0.674 | 0.686 | 0.686 | 0.703 | 0.717
298.15 K | 1.439 | 1.038 | 0.812 | 0.684 | 0.652 | 0.648 | 0.652 | 0.652 | 0.665 | 0.673
303.15 K | 1.256 | 0.924 | 0.747 | 0.643 | 0.608 | 0.601 | 0.608 | 0.616 | 0.629 | 0.632
308.15 K | 1.119 | 0.847 | 0.687 | 0.592 | 0.56 | 0.557 | 0.564 | 0.564 | 0.582 | 0.584
313.15 K | 0.972 | 0.74 | 0.613 | 0.536 | 0.516 | 0.516 | 0.522 | 0.525 | 0.531 | 0.543
318.15 K | 0.862 | 0.658 | 0.538 | 0.482 | 0.469 | 0.474 | 0.481 | 0.487 | 0.496 | 0.502
323.15 K | 0.759 | 0.574 | 0.469 | 0.431 | 0.428 | 0.436 | 0.443 | 0.451 | 0.457 | 0.461

CCCCOC(C)=O + CCCO
viscosity [mPa·s], 101 kPa
Settings | 298.15 K | 303.15 K | 308.15 K | 313.15 K
x1 = 0.0995 | 1.689 | 1.479 | 1.311 | 1.19
x1 = 0.1003 | – | 1.296 | – | –
x1 = 0.198 | – | 1.062 | – | –
x1 = 0.1987 | 1.483 | 1.293 | 1.148 | 1.048
x1 = 0.2976 | 1.308 | 1.148 | 1.025 | 0.942
x1 = 0.3002 | – | 0.912 | – | –
x1 = 0.4004 | – | 0.821 | – | –
x1 = 0.4009 | 1.151 | 1.011 | 0.915 | 0.848
x1 = 0.4989 | 1.023 | 0.903 | 0.822 | 0.77
x1 = 0.5001 | – | 0.755 | – | –
x1 = 0.5969 | 0.921 | 0.836 | 0.76 | 0.713
x1 = 0.6002 | – | 0.705 | – | –
x1 = 0.6993 | 0.833 | 0.766 | 0.7 | 0.67
x1 = 0.7001 | – | 0.674 | – | –
x1 = 0.7999 | – | 0.654 | – | –
x1 = 0.8008 | 0.767 | 0.717 | 0.666 | 0.631
x1 = 0.8932 | 0.717 | 0.68 | 0.636 | 0.61
x1 = 0.9002 | – | 0.641 | – | –

OCCc1ccccc1 + c1ccccc1
293.15 K, 101.32 kPa
Settings | viscosity [mPa·s]
x1 = 0.01771 | 0.6624
x1 = 0.04031 | 0.6965
x1 = 0.0739 | 0.7584
x1 = 0.1095 | 0.8402
x1 = 0.1585 | 0.985

CCCN + CCN(CC)CC
303.15 K, 101.33 kPa
Settings | viscosity [mPa·s]
x2 = 0.1027 | 0.3371
x2 = 0.2061 | 0.3317
x2 = 0.3991 | 0.3268
x2 = 0.495 | 0.3278
x2 = 0.6009 | 0.331
x2 = 0.7911 | 0.3408
x2 = 0.8925 | 0.3499

CCCCOC(C)=O + CCCCCCCCC
298.15 K, 101.3 kPa
Settings | viscosity [mPa·s]
x1 = 0.0459 | 0.6602
x1 = 0.1339 | 0.6474
x1 = 0.2324 | 0.6291
x1 = 0.3814 | 0.6318
x1 = 0.4218 | 0.6304
x1 = 0.4836 | 0.6314
x1 = 0.5989 | 0.632
x1 = 0.658 | 0.6382
x1 = 0.7574 | 0.6466
x1 = 0.8386 | 0.6563
x1 = 0.9486 | 0.6723

CC(C)c1ccccc1 + c1ccccc1
Settings | viscosity [mPa·s]
293.15 K, 101.33 kPa, x2 = 0.3728 | 0.721
293.15 K, 101.33 kPa, x2 = 0.5889 | 0.693
293.15 K, 101.33 kPa, x2 = 0.8176 | 0.66
293.15 K, 101.33 kPa, x2 = 0.9057 | 0.653
303.15 K, 101.3 kPa, x2 = 0.1245 | 0.6683
303.15 K, 101.3 kPa, x2 = 0.2644 | 0.6483
303.15 K, 101.3 kPa, x2 = 0.4246 | 0.6265
303.15 K, 101.3 kPa, x2 = 0.5391 | 0.6111
303.15 K, 101.3 kPa, x2 = 0.5606 | 0.6069
303.15 K, 101.3 kPa, x2 = 0.6382 | 0.5972
303.15 K, 101.3 kPa, x2 = 0.6478 | 0.5958
303.15 K, 101.3 kPa, x2 = 0.7409 | 0.5819
303.15 K, 101.3 kPa, x2 = 0.831 | 0.5721
303.15 K, 101.3 kPa, x2 = 0.919 | 0.5634
303.15 K, 101.33 kPa, x2 = 0.3728 | 0.63
303.15 K, 101.33 kPa, x2 = 0.5889 | 0.607
303.15 K, 101.33 kPa, x2 = 0.8176 | 0.575
303.15 K, 101.33 kPa, x2 = 0.9057 | 0.563
313.15 K, 101.33 kPa, x2 = 0.3728 | 0.56
313.15 K, 101.33 kPa, x2 = 0.5889 | 0.537
313.15 K, 101.33 kPa, x2 = 0.8176 | 0.512
313.15 K, 101.33 kPa, x2 = 0.9057 | 0.496
323.15 K, 101.33 kPa, x2 = 0.3728 | 0.499
323.15 K, 101.33 kPa, x2 = 0.5889 | 0.479
323.15 K, 101.33 kPa, x2 = 0.8176 | 0.454
323.15 K, 101.33 kPa, x2 = 0.9057 | 0.441

CCCCOC(C)=O + CCC(C)=O
308 K, 101 kPa
Settings | viscosity [mPa·s]
x1 = 0.0999 | 0.468
x1 = 0.2002 | 0.484
x1 = 0.3 | 0.52
x1 = 0.4 | 0.533
x1 = 0.4997 | 0.569
x1 = 0.5997 | 0.584
x1 = 0.7 | 0.606
x1 = 0.7997 | 0.642
x1 = 0.9004 | 0.669

CC(C)c1ccccc1 + CC(C)O
viscosity [mPa·s], 101 kPa
Settings | x2 = 0.1013 | x2 = 0.2013 | x2 = 0.2991 | x2 = 0.4002 | x2 = 0.4993 | x2 = 0.6002 | x2 = 0.7002 | x2 = 0.8006 | x2 = 0.9002
303.15 K | 0.6764 | 0.6831 | 0.7003 | 0.7299 | 0.7766 | 0.8482 | 0.9452 | 1.104 | 1.34
308.15 K | 0.6347 | 0.6402 | 0.6534 | 0.6776 | 0.7151 | 0.7732 | 0.8534 | 0.9869 | 1.183
313.15 K | 0.5971 | 0.599 | 0.6093 | 0.6291 | 0.6596 | 0.7081 | 0.7742 | 0.8854 | 1.046
318.15 K | 0.562 | 0.5619 | 0.5682 | 0.5853 | 0.611 | 0.6508 | 0.7041 | 0.7975 | 0.9303
323.15 K | 0.5287 | 0.5275 | 0.5322 | 0.5444 | 0.5654 | 0.5976 | 0.6419 | 0.7195 | 0.8272
